Calls of active or inactive are those of the source. The calls are words filed in the database; no cut-off is given here.
Key:
[1] = Photooxidative transformation of DHCHE assessed as increase in generation of CHE under blue light 450 nm/20 mW/cm^-2 irradiation at 10 uM by UV-vis absorption spectra analysis; format: functional
[2] = Toxicity in human A-375 cells xenografted in mouse model assessed as inflammation lesions in lung in presence of DHCHE under blue light 450 nm/20 mW/cm^-2 irradiation at 1 mg/kg administered intratumoral injection for 14 days by H and E staining based assay; format: organism-based; conditions: in vivo, other, 336 h, route it(Intratumoral), time 14 day
A-375 [3] = assay: Potentiation of DHSAN-mediated apoptosis activity against human A-375 cells assessed as cell killing under blue light 450 nm/20 mW/cm^-2 irradiation at 10 uM after 30 min by CLSM imaging method; format: functional, cell-based
A-375 [4] = assay: In vivo antitumor activity against human A-375 cells xenografted in mouse model assessed as potentiation of DHCHE-mediated anticancer activity by measuring increase in caspase 3 expression at 1 mg/kg administered intratumoral injection for 14 days by […]; format: functional, organism-based; conditions: route it(Intratumoral), time 14.0 day
[5] = Photooxidative transformation of DHCHE assessed as decrease in DHCHE peak under blue light 450 nm/20 mW/cm^-2 irradiation at 0.1 mg/ml by HPLC analysis (reference value: 82.7%); format: functional; set-up: scale not given: the % may be the effect or the level left
[6] = Toxicity in human A-375 cells xenografted in mouse model assessed as changes in total protein in presence of DHCHE under blue light 450 nm/20 mW/cm^-2 irradiation at 1 mg/kg administered intratumoral injection for 14 days by […]; format: organism-based; conditions: in vivo, other, 336 h, route it(Intratumoral), time 14 day
A-375 [7] = assay: Potentiation of DHCHE-mediated apoptosis activity against human A-375 cells assessed as increase in Caspase 3 gene expression under blue light 450 nm/20 mW/cm^-2 irradiation at 10 uM after 10 min by quantitative reverse transcription PCR analysis; format: functional, cell-based
[8] = Toxicity in human A-375 cells xenografted in mouse model assessed as inflammation lesions in kidney in presence of DHCHE under blue light 450 nm/20 mW/cm^-2 irradiation at 1 mg/kg administered intratumoral injection for 14 days by H and E staining based assay; format: organism-based; conditions: in vivo, other, 336 h, route it(Intratumoral), time 14 day
[9] = Toxicity in human A-375 cells xenografted in mouse model assessed as change in body weight in presence of DHCHE under blue light 450 nm/20 mW/cm^-2 irradiation at 1 mg/kg administered intratumoral injection for 14 days; format: organism-based; conditions: in vivo, other, 336 h, route it(Intratumoral), time 14 day
[10] = Photooxidative transformation of DHNIT assessed as increase in generation of NIT under blue light 450 nm/20 mW/cm^-2 irradiation at 10 uM by UV-vis absorption spectra analysis; format: functional
A-375 [11] = assay: Potentiation of DHCHE-mediated apoptosis activity against human A-375 cells assessed as decrease in Bcl2 gene expression under blue light 450 nm/20 mW/cm^-2 irradiation at 10 uM after 10 min by quantitative reverse transcription PCR analysis; format: functional, cell-based
[12] = Toxicity in human A-375 cells xenografted in mouse model assessed as inflammation lesions in liver in presence of DHCHE under blue light 450 nm/20 mW/cm^-2 irradiation at 1 mg/kg administered intratumoral injection for 14 days by H and E staining based assay; format: organism-based; conditions: in vivo, other, 336 h, route it(Intratumoral), time 14 day
[13] = Toxicity in human A-375 cells xenografted in mouse model assessed as inflammation lesions in heart in presence of DHCHE under blue light 450 nm/20 mW/cm^-2 irradiation at 1 mg/kg administered intratumoral injection for 14 days by H and E staining based assay; format: organism-based; conditions: in vivo, other, 336 h, route it(Intratumoral), time 14 day
[14] = Photooxidative transformation of DHCHE assessed as decrease in DHCHE peak under blue light 450 nm/20 mW/cm^-2 irradiation at 0.1 mg/ml from 0 to 20 mins by NMR spectra analysis; format: functional; conditions: time 0-20 min
A-375 [15] = assay: Potentiation of DHCHE-mediated apoptosis activity against human A-375 cells assessed as increase in P53 gene expression under blue light 450 nm/20 mW/cm^-2 irradiation at 10 uM after 10 min by quantitative reverse transcription PCR analysis; format: functional, cell-based
A-375 [16] = assay: Potentiation of DHCHE-mediated anticancer activity against human A-375 cells assessed as cell killing under blue light 450 nm/20 mW/cm^-2 irradiation at 10 uM after 10 min by MTT assay; format: functional, cell-based
A-375 [17] = assay: In vivo antitumor activity against human A-375 cells xenografted in mouse model assessed as potentiation of DHCHE-mediated tumor growth inhibition under blue light 450 nm/20 mW/cm^-2 irradiation at 1 mg/kg administered intratumoral injection for 14 days; format: functional, organism-based; conditions: route it(Intratumoral), time 14.0 day
A-375 [18] = assay: Potentiation of DHCHE-mediated apoptosis activity against human A-375 cells assessed as increase in Bax gene expression under blue light 450 nm/20 mW/cm^-2 irradiation at 10 uM after 10 min by quantitative reverse transcription PCR analysis; format: functional, cell-based
[19] = Toxicity in human A-375 cells xenografted in mouse model assessed as changes in ALT in presence of DHCHE under blue light 450 nm/20 mW/cm^-2 irradiation at 1 mg/kg administered intratumoral injection for 14 days by […]; format: organism-based; conditions: in vivo, other, 336 h, route it(Intratumoral), time 14 day
A-375 [20] = assay: In vivo antitumor activity against human A-375 cells xenografted in mouse model assessed as potentiation of DHCHE-mediated anticancer activity by measuring increase in vacuole and condensed nuclei at 1 mg/kg administered intratumoral injection for 14 days by […]; format: functional, organism-based; conditions: route it(Intratumoral), time 14.0 day
A-375 [21] = assay: Photooxidative transformation of DHCHE in human A-375 cells assessed as increase in red fluorescence in nucleus under blue light 450 nm/20 mW/cm^-2 irradiation at 10 uM after 1 min by confocal laser scanning microscopy; format: ADME, cell-based; conditions: a-375, 1 min
[22] = Toxicity in human A-375 cells xenografted in mouse model assessed as changes in AST in presence of DHCHE under blue light 450 nm/20 mW/cm^-2 irradiation at 1 mg/kg administered intratumoral injection for 14 days by […]; format: organism-based; conditions: in vivo, other, 336 h, route it(Intratumoral), time 14 day
[23] = Photooxidative transformation of DHCHE assessed as decrease in DHCHE peak under blue light 450 nm/20 mW/cm^-2 irradiation at 0.1 mg/ml from 0 to 20 mins by HRMS spectra analysis; format: functional; conditions: time 0-20 min
[24] = Photooxidative transformation of DHSAN assessed as increase in generation of SAN under blue light 450 nm/20 mW/cm^-2 irradiation at 10 uM by UV-vis absorption spectra analysis; format: functional
A-375 [25] = assay: In vivo antitumor activity against human A-375 cells xenografted in mouse model assessed as potentiation of DHCHE-mediated anticancer activity by measuring decrease in Ki-67 expression at 1 mg/kg administered intratumoral injection for 14 days by […]; format: functional, organism-based; conditions: route it(Intratumoral), time 14.0 day
[26] = Toxicity in human A-375 cells xenografted in mouse model assessed as changes in BUN in presence of DHCHE under blue light 450 nm/20 mW/cm^-2 irradiation at 1 mg/kg administered intratumoral injection for 14 days by […]; format: organism-based; conditions: in vivo, other, 336 h, route it(Intratumoral), time 14 day
[27] = Toxicity in human A-375 cells xenografted in mouse model assessed as inflammation lesions in intestine in presence of DHCHE under blue light 450 nm/20 mW/cm^-2 irradiation at 1 mg/kg administered intratumoral injection for 14 days by H and E staining based assay; format: organism-based; conditions: in vivo, other, 336 h, route it(Intratumoral), time 14 day
[28] = Toxicity in human A-375 cells xenografted in mouse model assessed as inflammation lesions in spleen in presence of DHCHE under blue light 450 nm/20 mW/cm^-2 irradiation at 1 mg/kg administered intratumoral injection for 14 days by H and E staining based assay; format: organism-based; conditions: in vivo, other, 336 h, route it(Intratumoral), time 14 day
A-375 [29] = assay: Potentiation of DHNIT-mediated anticancer activity against human A-375 cells assessed as cell killing under blue light 450 nm/20 mW/cm^-2 irradiation at 10 uM after 10 min by MTT assay; format: functional, cell-based
A-375 [30] = assay: Potentiation of DHSAN-mediated anticancer activity against human A-375 cells assessed as cell killing under blue light 450 nm/20 mW/cm^-2 irradiation at 10 uM after 10 min by MTT assay; format: functional, cell-based
A-375 [31] = assay: Potentiation of DHNIT-mediated apoptosis activity against human A-375 cells assessed as cell killing under blue light 450 nm/20 mW/cm^-2 irradiation at 10 uM after 30 min by CLSM imaging method; format: functional, cell-based
A-375 [32] = assay: Potentiation of DHCHE-mediated apoptosis activity against human A-375 cells assessed as cell killing under blue light 450 nm/20 mW/cm^-2 irradiation at 10 uM after 30 min by CLSM imaging method; format: functional; conditions: 0.5 h

SMILES: Cc1cc2nc3c(=O)[nH]c(=O)nc-3n(C[C@H](O)[C@H](O)[C@H](O)CO)c2cc1C [RIBOFLAVIN]
- Drug metabolism [1]: Metabolite detected
- Activity [2]: Non-Toxic
- Activity (A-375 [3]): Active
- Activity (A-375 [4]): Active
- Activity [5]: 11.2%
- Activity [6]: Non-Toxic
- Activity (A-375 [7]): Active
- Activity [8]: Non-Toxic
- Activity [9]: Non-Toxic
- Drug metabolism [10]: Metabolite detected
- Activity (A-375 [11]): Active
- Activity [12]: Non-Toxic
- Activity [13]: Non-Toxic
- Drug metabolism [14]: Metabolite detected
- Activity (A-375 [15]): Active
- Activity (A-375 [16]): Active
- Activity (A-375 [17]): Active
- Activity (A-375 [18]): Active
- Activity [19]: Non-Toxic
- Activity (A-375 [20]): Active
- Drug metabolism (A-375 [21]): Metabolite_Detected
- Activity [22]: Non-Toxic
- Drug metabolism [23]: Metabolite detected
- Drug metabolism [24]: Metabolite detected
- Activity (A-375 [25]): Active
- Activity [26]: Non-Toxic
- Activity [27]: Non-Toxic
- Activity [28]: Non-Toxic
- Activity (A-375 [29]): Active
- Activity (A-375 [30]): Active
- Activity (A-375 [31]): Active
- Activity (A-375 [32]): 61.7%

From ChEMBL document CHEMBL5150052, “Riboflavin-Promoted In Situ Photoactivation of Dihydroalkaloid Prodrugs for Cancer Therapy” (J Med Chem, 2022)
